Where two headings read alike, the source gives them in different places.
Legend:
Format in all cases: physicochemical
[1] = Water activity study (competition of forms, XRPD); settings: for XPRD results, Form: room temperature
Experimental: Water activity study was performed using Compound 3 Form B (anhydrate) as the input material in EtOH/Water with different water content at RT. About 5 mg of Compound 3, Form B was used to prepare saturated solutions and the solutions were filtered by syringe at RT. 5 mg of Compound 3, Form D were added in the 1 mL of filtrate, and the suspension was slurried at RT for 3 and 7 days. The solids collected after filtration were analyzed by XRPD.
Protocol: excess amount of Compound 4 Form B was used to prepare saturated solutions. 6-8 mg each of Compound 4 Form B and Form D were added in the solutions. The suspension was slurried at room temperature for the corresponding times. Residual solids were collected by filtration with syringe filter, and characterized by XRPD.

[2] = Estimated solubility by solvent addition method via visual assessment; settings: thermodynamic from solid, read-out: Solubility, Concentration
Experimental: Solubility of Compound 3 Form B was estimated in 30 solvents at room temperature and in 9 organic solvents at 70° C. using solvent addition method via visual assessment.
Protocol: about 3 mg of Compound 3 Form B was weighed into a sample vial and the solvent was added gradually with vortex until the drug solution was clear by observation or a total of 2 mL solvent was added. Then, the estimated solubility (mg/mL) was calculated.
Solubility of Compound 4, Form B was estimated in 18 solvents at room temperature using solvent addition method via visual assessment. About 3 mg of Compound 4, Form B was weighed into a sample vial and the solvent was added gradually with vortex until the solution was clear by observation or a total of 2 mL solvent was added. Then, the estimated solubility (mg/mL) was calculated.

[3] = Slurry study evaluated by XRPD
Experimental: About 20 mg of Compound 3, Form B was weighed into a sample vial and then 1 mL of solvent was added to make a suspension. The suspension was stirred at room temperature or 50° C. for 3 days and 11 days. Then, the wet solid was collected by filtration and analyzed by XRPD.
20-30 mg of Compound 4 Form B was added in 1 mL of selected solvents at room temperature or 50° C. The suspension was slurried at room temperature or 50° C. for 3 days and 11 days. The wet solids collected from filtration were examined by XRPD. There were four crystal forms obtained by slurrying, including di-mesylate Forms B, C and D as well as mono-mesylate Form G.

[4] = Competitive slurry experiment evaluated by XRPD
Source text: Competitive slurry experiment for Compound 4 Form B and Form D Competitive slurry experiments of Compound 4 Form B and Form D were set up to verify the relative stability relationship. It was supposed that Form D was the stable form at high water activity, while Form B was stable at low water activity. All the solvents used was analytical grade and should contained trace amounts of water. […] The water activity at elevated temperature is lower than at low temperature. Therefore, Form B was obtained in ACN at 50° C., while Form D was the stable form at room temperature.

[5] = slurry at 50° C., printed at MeOH

Cc1n[nH]c2nc(-c3ccc(NS(=O)(=O)c4cc(F)ccc4F)c(F)c3)nc(NCCN(C)C)c12.Cl [Compound 3 Form B + D]
Form D: XPRD results 3 D/Wet, 7 D/Wet, 7 D/Dried ([1]; EtOH/Water 82.9/17.1 (V/%), aW 0.64, RT) | XPRD results 3 D/Wet, 7 D/Wet, 7 D/Dried ([1]; EtOH/Water 92.8/7.2 (V/%), aW 0.41, RT) | XPRD results 3 D/Wet, 7 D/Wet, 7 D/Dried ([1]; EtOH/Water 97/3 (V/%), aW 0.21, RT) | XPRD results 3 D/Wet, 7 D/Wet, 7 D/Dried ([1]; EtOH/Water 98.4/1.6 (V/%), aW 0.12, RT)
Form D + extra peak: XPRD results 3 D/Wet, 7 D/Wet, 7 D/Dried ([1]; EtOH/Water 24.7/75.3 (V/%), aW 0.92, RT) | XPRD results 3 D/Wet, 7 D/Wet, 7 D/Dried ([1]; EtOH/Water 58.1/41.9 (V/%), aW 0.82, RT)

Cc1n[nH]c2nc(-c3ccc(NS(=O)(=O)c4cc(F)ccc4F)c(F)c3)nc(NCCN(C)C)c12.Cl [Compound 3 Form B]
3000 to 3300 µg/mL: solubility ([2]; organic solvent or mixture, DMA, RT)
20000 to 40000 µg/mL: solubility ([2]; organic solvent or mixture, DMA, 70° C.)
1600 to 1900 µg/mL: solubility ([2]; organic solvent or mixture, THF/Water (9/1), RT)
> 40000 µg/mL: solubility ([2]; organic solvent or mixture, DMSO, 70° C.) | solubility ([2]; organic solvent or mixture, NMP, 70° C.)
3000 to 3800 µg/mL: solubility ([2]; organic solvent or mixture, NMP, RT)
1500 to 1700 µg/mL: solubility ([2]; organic solvent or mixture, ACN/Water (9/1), RT)
1500 to 1600 µg/mL: solubility ([2]; organic solvent or mixture, Acetone/MeOH (1/1), RT)
16700 to 20000 µg/mL: solubility ([2]; organic solvent or mixture, DMF, 70° C.)
Amorphous: XRPD Day 3/Wet ([3]; slurry at RT, MeOH 1 mL) | XRPD Day 3/Wet ([3]; slurry at RT, THF 1 mL)
5400 to 5500 µg/mL: solubility ([2]; organic solvent or mixture, DMSO, RT)
2000 to 3000 µg/mL: solubility ([2]; organic solvent or mixture, DMF, RT)
2500 to 3000 µg/mL: solubility ([2]; organic solvent or mixture, MeOH/Water (9/1), RT)
< 1500 µg/mL: solubility ([2]; aqueous with cosolvent or surfactant or cyclodextrin, Acetone/Water (1/1), RT) | solubility ([2]; organic solvent or mixture, 1,4-Dioxane, RT) | solubility ([2]; organic solvent or mixture, 2-Me-THF, RT) | solubility ([2]; organic solvent or mixture, ACN, RT) | solubility ([2]; organic solvent or mixture, Acetic acid, 70° C.) | solubility ([2]; organic solvent or mixture, Acetic acid, RT) | solubility ([2]; organic solvent or mixture, Acetone, 70° C.) | solubility ([2]; organic solvent or mixture, Acetone, RT) | solubility ([2]; organic solvent or mixture, Benzyl alcohol, 70° C.) | solubility ([2]; organic solvent or mixture, Benzyl alcohol, RT) | solubility ([2]; organic solvent or mixture, DCM, RT) | solubility ([2]; organic solvent or mixture, DCM/MeOH (3/1), RT) | solubility ([2]; organic solvent or mixture, EA, RT) | solubility ([2]; organic solvent or mixture, EtOH, 70° C.) | solubility ([2]; organic solvent or mixture, EtOH, RT) | solubility ([2]; organic solvent or mixture, IPA, RT) | solubility ([2]; organic solvent or mixture, IPAC, RT) | solubility ([2]; organic solvent or mixture, IPE, RT) | solubility ([2]; organic solvent or mixture, MEK, RT) | solubility ([2]; organic solvent or mixture, MIBK, RT) | solubility ([2]; organic solvent or mixture, MTBE, RT) | solubility ([2]; organic solvent or mixture, Me-cyclohexane, RT) | solubility ([2]; organic solvent or mixture, MeOH, RT) | solubility ([2]; organic solvent or mixture, THF, 70° C.) | solubility ([2]; organic solvent or mixture, THF, RT) | solubility ([2]; organic solvent or mixture, n-Heptane, RT) | solubility ([2]; Water, RT)
Form D: XRPD Day 3/Wet [3, 5] | XRPD Day 11/Wet [3, 5] | XRPD Day 3/Wet ([3]; slurry at RT, 1,4-Dioxane 1 mL, cell apparently merged down for IPA, IPAC, MTBE, Water, n-Heptane, Acetone, EA, ACN, DCM, MIBK, MEK) | XRPD Day 3/Wet ([3]; slurry at RT, EtOH 1 mL) | XRPD Day 11/Wet ([3]; slurry at RT, printed at MeOH)

Cc1n[nH]c2nc(-c3ccc(NS(=O)(=O)c4cc(F)ccc4F)c(F)c3)nc(NCCN(C)C)c12 [Compound 4 Forms B + D]
Form B: XPRD results, Form ([1]; MeOH/water, aW 0.08, 7 d) | Results 8 d (XRPD) ([4]; ACN, 50° C.) | Results 14 d (XRPD) ([4]; ACN, 50° C.) | Results 8 d (XRPD) ([4]; MeOH, 50° C.) | Results 14 d (XRPD) ([4]; MeOH, 50° C.) | Results 8 d (XRPD) ([4]; MeOH, RT) | Results 14 d (XRPD) ([4]; MeOH, RT)
Form B + Form D: Results 8 d (XRPD) ([4]; ACN, RT)
Forms B + D: XPRD results, Form ([1]; MeOH/water, aW 0.08, 3 d)
Form D: XPRD results, Form ([1]; ACN/water, aW 0.37, 8 d) | XPRD results, Form ([1]; ACN/water, aW 0.37, 14 d) | XPRD results, Form ([1]; ACN/water, aW 0.58, 8 d) | XPRD results, Form ([1]; ACN/water, aW 0.58, 14 d) | XPRD results, Form ([1]; ACN/water, aW 0.78, 8 d) | XPRD results, Form ([1]; ACN/water, aW 0.78, 14 d) | XPRD results, Form ([1]; ACN/water, aW 0.90, 8 d) | XPRD results, Form ([1]; ACN/water, aW 0.90, 14 d) | XPRD results, Form ([1]; MeOH/water, aW 0.16, 3 d) | XPRD results, Form ([1]; MeOH/water, aW 0.16, 7 d) | Results 14 d (XRPD) ([4]; ACN, RT) | Results 8 d (XRPD) ([4]; IPAC, 50° C.) | Results 14 d (XRPD) ([4]; IPAC, 50° C.) | Results 8 d (XRPD) ([4]; IPAC, RT) | Results 14 d (XRPD) ([4]; IPAC, RT)

From US20250320215A1, “SALTS OF N-[4-(4-[[2-(DIMETHYLAMINO)ETHYL]AMINO]-3-METHYL-1H-PYRAZOLO[3,4-D]PYRIMIDIN-6-YL)-2-FLUOROPHENYL]-2,5-DIFLUOROBENZENESULFONAMIDE AND CRYSTALLINE FORMS THEREOF” (THRYV THERAPEUTICS INC, priority 2022, published 2025)
